# Data from paper PMC4054954 (Brain research, 2011).
# Entries after “also recorded” stand apart in the source; their conditions may differ.
# Test system: HT-22 cells
# Test: HT-22 cell-based glutamate cytoprotection assay
# Design: species or system murine
# Details: for cytoprotection / neuroprotection of HT-22 cells (in words): glutamate-induced oxidative stress cell death
structure (smiles),measurement,setting,value
O=C(CCCN1CCC(O)(c2ccc(Cl)cc2)CC1)c1ccc(F)cc1 [haloperidol],cytoprotection / neuroprotection of HT-22 cells (in words),,potent neuroprotective agent; also recorded: protective
O=C(OCCN1CCOCC1)C1(c2ccccc2)CCCCC1 [PRE-084],cytoprotection / neuroprotection of HT-22 cells (in words),,not cytoprotective
CC(C)=CCN1CC[C@]2(C)c3cc(O)ccc3C[C@H]1[C@H]2C [(+)-pentazocine],EC50,"Mus musculus, HT-22, read-out: cytoprotective EC50",> 4 µM
same,cytoprotection / neuroprotection of HT-22 cells (in words),,not to be neuroprotective; also recorded: not cytoprotective
